Calls of active or inactive are those of the source. The rule behind the calls is not given here.
Experiments:
[1] = biological target: T1, Probable G-protein coupled receptor 174 (Homo sapiens, UniProt Q9BXC1); assay: Allosteric modulator activity at human GPR174 expressed in cells assessed as inhibition of CRE-luc reporter activity by measuring decrease in Gs-protein signalling activity relative to control; assay type: functional, cell-based; conditions: filed as […] allosteric modulator
[2] = biological target: T1, Probable G-protein coupled receptor 174; assay: Inhibition of GPR174 (unknown origin) in cells assessed as incorporation of nuclear localization sequence into transmembrane protein by cellular redistribution assay; assay type: functional
[3] = biological target: T1, Probable G-protein coupled receptor 174; assay: Antagonist activity at human GPR174 expressed in cells assessed as inhibition of CRE-luc reporter activity by measuring decrease in Gs-protein signalling activity relative to control; assay type: functional, cell-based; conditions: filed as antagonist
[4] = biological target: T1, Probable G-protein coupled receptor 174; assay: Inverse agonist activity at human GPR174 expressed in cells assessed as inhibition of CRE-luc reporter activity by measuring decrease in Gs-protein signalling activity relative to control; assay type: functional, cell-based
[5] = biological target: T1, Probable G-protein coupled receptor 174; assay: Inhibition of human GPR174 in anti-CD3/antiCD28-stimulated human PBMC assessed as increase in IL-2 level measured after 2 days by ELISA; assay type: functional, tissue-based; conditions: time 2.0 day
[6] = biological target: T1, Probable G-protein coupled receptor 174; assay: Inhibition of human GPR174 in anti-CD3/antiCD28-stimulated human PBMC assessed as CD8+ cell population at 10 uM measured after 2 days relative to control; assay type: functional, tissue-based; parameters: scale not given: the % may be the effect or the level left; conditions: time 2.0 day
[7] = biological target: T1, Probable G-protein coupled receptor 174; assay: Inhibition of GPR174 in anti-CD3/antiCD28-stimulated human PBMC assessed as increase in IFNgamma level measured after 2 days by ELISA; assay type: functional, tissue-based; conditions: time 2.0 day
[8] = biological target: T1, Probable G-protein coupled receptor 174; assay: Inhibition of human GPR174 in anti-CD3/antiCD28-stimulated CD45RA-FOXP+ human PBMC assessed as reduction in CTLA4 expression measured in non-memory Treg cells relative to control; assay type: functional, cell-based; conditions: dose 0.19-6 µM
[9] = biological target: T1, Probable G-protein coupled receptor 174; assay: Inhibition of human GPR174 in anti-CD3/antiCD28-stimulated human PBMC assessed as non-T cell cell population at 10 uM measured after 2 days relative to control; assay type: functional, tissue-based; parameters: scale not given: the % may be the effect or the level left; conditions: time 2.0 day
[10] = biological target: T1, Probable G-protein coupled receptor 174; assay: Inhibition of human GPR174 in anti-CD3/antiCD28-stimulated human PBMC assessed as increase in IFNgamma production at 10 uM measured after 2 days relative to control; assay type: functional, tissue-based; conditions: time 2.0 day
[11] = biological target: T1, Probable G-protein coupled receptor 174; assay: Inhibition of human GPR174 in anti-CD3/antiCD28-stimulated human regulatory T cells assessed as reduction in CTLA4 expression relative to control; assay type: functional, tissue-based; conditions: T cell, dose 0.19-6 µM
[12] = biological target: T1, Probable G-protein coupled receptor 174; assay: Inhibition of human GPR174 in anti-CD3/antiCD28-stimulated human PBMC assessed as reduction in TGIT expression in CD8+ T cell relative to control; assay type: functional, tissue-based
Splenocyte = assay: Effect on IL-2 production in mouse GPR174 knock out splenocytes at 10 uM measured after 2 days; assay type: functional, cell-based; conditions: time 2.0 day
[13] = biological target: T1, Probable G-protein coupled receptor 174; assay: Inhibition of human GPR174 in anti-CD3/antiCD28-stimulated human PBMC assessed as reduction in PD-L1 expression in CD4+ T cell relative to control; assay type: functional, tissue-based
[14] = biological target: T1, Probable G-protein coupled receptor 174; assay: Inhibition of human GPR174 in anti-CD3/antiCD28-stimulated human PBMC assessed as increase in natural Treg cells […] at 100 uM measure after 7 days by flow cytometry; assay type: functional, cell-based; conditions: time 7.0 day
[15] = biological target: Probable G-protein coupled receptor 174 (Mus musculus) (UniProt Q3U507); assay: Inhibition of mouse GPR174 in anti-CD3/antiCD28-stimulated mouse splenocytes assessed as increase in IL-2 production at 10 uM measured after 2 days; assay type: functional, tissue-based; conditions: Splenocyte, time 2.0 day
[16] = biological target: T1, Probable G-protein coupled receptor 174; assay: Inhibition of human GPR174 in anti-CD3/antiCD28-stimulated human PBMC assessed as increase in TNFalpha production at 10 uM measured after 2 days relative to control; assay type: functional, tissue-based; conditions: time 2.0 day
[17] = biological target: T1, Probable G-protein coupled receptor 174; assay: Inhibition of human GPR174 in anti-CD3/antiCD28-stimulated human PBMC assessed as reduction in natural Treg cells (FoxP3+Helios+) at 100 uM measure after 7 days by flow cytometry; assay type: functional, cell-based; conditions: time 7.0 day
[18] = biological target: T1, Probable G-protein coupled receptor 174; assay: Inhibition of human GPR174 in anti-CD3/antiCD28-stimulated human PBMC assessed as increase in IL-10 production at 10 uM measured after 2 days relative to control; assay type: functional, tissue-based; conditions: time 2.0 day
[19] = biological target: T1, Probable G-protein coupled receptor 174; assay: Inhibition of human GPR174 in anti-CD3/antiCD28-stimulated human PBMC assessed as reduction in CTLA4 expression relative to control; assay type: functional, tissue-based; conditions: dose 0.19-6 µM
[20] = biological target: T1, Probable G-protein coupled receptor 174; assay: Inhibition of human GPR174 in anti-CD3/antiCD28-stimulated human PBMC assessed as reduction in natural Treg cells (FoxP3+Helios+) measure after 7 days by ELISA; assay type: functional, cell-based; conditions: dose 3-30 µM, time 7.0 day
[21] = biological target: T1, Probable G-protein coupled receptor 174; assay: Inhibition of human GPR174 in anti-CD3/antiCD28-stimulated human PBMC assessed as CD4+ cell population at 10 uM measured after 2 days relative to control; assay type: functional, tissue-based; parameters: scale not given: the % may be the effect or the level left; conditions: time 2.0 day
[22] = biological target: T1, Probable G-protein coupled receptor 174; assay: Inhibition of human GPR174 in anti-CD3/antiCD28-stimulated human PBMC assessed as increase in IL-2 production measured after 2 days; assay type: functional, tissue-based; conditions: dose 3-60 µM, time 2.0 day
[23] = biological target: T1, Probable G-protein coupled receptor 174; assay: Inhibition of human GPR174 in anti-CD3/antiCD28-stimulated human PBMC assessed as increase in IL-6 production at 10 uM measured after 2 days relative to control; assay type: functional, tissue-based; conditions: time 2.0 day
[24] = biological target: T1, Probable G-protein coupled receptor 174; assay: Inhibition of human GPR174 in anti-CD3/antiCD28-stimulated CD45RA-FOXP+ human PBMC assessed as reduction in CTLA4 expression measured in memory Treg cells relative to control; assay type: functional, cell-based; conditions: dose 0.19-6 µM
[25] = biological target: T1, Probable G-protein coupled receptor 174; assay: Inhibition of human GPR174 in anti-CD3/antiCD28-stimulated human PBMC assessed as reduction in AREG expression in CD4+ T cell relative to control; assay type: functional, tissue-based

T1 sequence (Q9BXC1 whole entry): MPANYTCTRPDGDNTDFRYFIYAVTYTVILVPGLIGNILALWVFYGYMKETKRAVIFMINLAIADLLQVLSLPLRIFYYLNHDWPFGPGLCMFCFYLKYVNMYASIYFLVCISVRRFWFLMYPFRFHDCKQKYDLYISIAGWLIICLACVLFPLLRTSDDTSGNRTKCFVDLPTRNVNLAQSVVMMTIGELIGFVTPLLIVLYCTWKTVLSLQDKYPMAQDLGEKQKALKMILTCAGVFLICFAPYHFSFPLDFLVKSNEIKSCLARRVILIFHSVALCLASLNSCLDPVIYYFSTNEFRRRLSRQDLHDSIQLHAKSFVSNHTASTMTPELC
Sequence of Probable G-protein coupled receptor 174 (Mus musculus) (Q3U507 whole entry): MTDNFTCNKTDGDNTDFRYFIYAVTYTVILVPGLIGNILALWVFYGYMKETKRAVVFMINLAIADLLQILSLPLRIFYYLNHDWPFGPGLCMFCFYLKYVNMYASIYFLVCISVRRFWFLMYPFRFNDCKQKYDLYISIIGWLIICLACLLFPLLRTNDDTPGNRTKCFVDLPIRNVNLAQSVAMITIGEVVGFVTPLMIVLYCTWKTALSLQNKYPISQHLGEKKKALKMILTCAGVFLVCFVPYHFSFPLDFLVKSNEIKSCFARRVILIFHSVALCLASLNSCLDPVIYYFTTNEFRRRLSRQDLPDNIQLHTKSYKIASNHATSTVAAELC

## Cc1cc(Cc2ccc(NC(=O)c3cccs3)c(C)c2)ccc1NC(=O)c1cccs1
[1]
  Activity: Active
[2]
  EC50: 500 nM
[3]
  Activity: Active

## CC(=O)c1ccc(N2CCN(C(=O)c3ccc(F)cc3)CC2)c(F)c1
[1]
  Activity: Active
[3]
  Activity: Active

## CCCC(=O)c1ccc(N2CCN(S(=O)(=O)c3ccc(C)cc3)CC2)c(F)c1
[3]
  Activity: Active

## O=C(N/N=C/c1cc(Cl)ccc1O)c1ccncc1
[1]
  Activity: Active
[3]
  Activity: Active

## CCOc1ccc(C2C3=C(CCCC3=O)NC3=C2C(=O)c2ccccc23)cn1 (stereo not given)
[4]
  Ratio: 3

## O=C(c1ccccc1)N1CCN(c2cc(N3CCCCC3)c(F)cc2[N+](=O)[O-])CC1
[5]
  Activity: Dose-Dependent Effect

## CC1CCN(c2cc(N3CCN(S(=O)(=O)c4ccccc4)CC3)c([N+](=O)[O-])cc2F)CC1
[6]
  Activity: 17.1%
[7]
  Activity: Active
[8]
  Activity: Active
[9]
  Activity: 33.9%
[10]
  Activity: Active
[11]
  Activity: Dose-Dependent Effect
[5]
  Activity: Dose-Dependent Effect
[12]
  Activity: Dose-Dependent Effect
Splenocyte
  Activity: inactive
[13]
  Activity: Dose-Dependent Effect
[14]
  Activity: Active
[15]
  Activity: Active
[16]
  Activity: Active
[17]
  Activity: Active
[18]
  Activity: Active
[19]
  Activity: Dose-Dependent Effect
[20]
  Activity: Dose-Dependent Effect
[21]
  Activity: 46.2%
[2]
  EC50: 600 nM
[22]
  Activity: Dose-Dependent Effect
[23]
  Activity: Active
[24]
  Activity: Active
[25]
  Activity: Dose-Dependent Effect

## C=C(C)COc1ccc(NC(=O)Nc2ccccc2)cc1
[4]
  Ratio: 3.7

## Cc1ccccc1Nc1nnc(-c2ccc(C)c(S(N)(=O)=O)c2)c2ccccc12
[1]
  Activity: Active
[3]
  Activity: Active

## Cc1cc(C(=O)N/N=C/c2cc(Br)ccc2O)c(C)o1
[1]
  Activity: Active
[3]
  Activity: Active

## Cc1ccc(-c2nnc(Nc3ccccc3)c3ccccc23)cc1S(N)(=O)=O
[1]
  Activity: Active
[3]
  Activity: Active
